Where two headings read alike, the source gives them in different places.
How the values were obtained:
[1] = biological target: wild-type human cardiac sodium channel, hNaV 1.5 (Peak INa) (Homo sapiens, UniProt Q14524); test: Peak INa screening assay (tonic block and use-dependent block); format: cell-based
Procedure: The assay uses an HEK293 (human embryonic kidney) cell line heterologously expressing the wild-type human cardiac sodium channel, hNaV 1.5, purchased from Millipore (Billerica, Mass.). No beta subunits were coexpressed with the Na channel alpha subunit. Cells are maintained with standard tissue culture procedures and stable channel expression is maintained with 400 μg/mL Geneticin in the culture medium. […] Currents are digitized at 25 kHz and low-pass filtered at 5 kHz and stored in the Sophion Bioscience Oracle database (Sophion Bioscience, Copenhagen, Denmark). Analysis is performed using QPatch Assay software and data are compiled in Excel 2010 (Microsoft, Seattle, Wash., U.S.A.). Compound stocks are routinely made by the Gilead Sample Bank in vials to 10 mM in dimethyl sulfoxide (DMSO). In some cases, when compounds are not soluble in DMSO, they are made in 100% ethanol. Stocks are sonicated as necessary. The extracellular solution for screening Late INa is composed of: 140 mM NaCl, 4 mM KCl, 1.8 mM CaCl2, 1 mM MgCl2, 10 mM HEPES and 10 mM Dextrose with pH adjusted to 7.35 using NaOH. The intracellular solution contains: 105 mM CsF, 20 mM CsCl, 10 NaF, 2 mM EGTA, 10 mM HEPES and 10 mM Dextrose with pH adjusted to 7.35 with CsOH. Compounds are diluted in extracellular solution using a MicroLab Nimbus (Hamilton Robotics, Reno, Nev.) to between 0.3 and 3 μM in glass vials and transferred to glass well plates before robotic addition to the cells. […] It is contemplated that the compounds of Formula I avoid significant block of peak INa. […] The intracellular solution used for the Peak INa assay is the same as outlined for the Late INa assay (see above). After establishing the whole cell recording configuration, channels were stimulated to open with low frequency (0.1 Hz) for so that the recording can be monitored and the extent to which the recording has stabilized can be assessed. The test compound is then applied at 1 or 3 μM was added 2 times at 60 second intervals. After the second compound addition, a 200 second wait period was imposed to allow for equilibration. Voltage protocols for TB and UDB are were performed in the absence and presence of compound and TB and UDB are calculated with respect to the compound free condition. Both TB and UDB were analyzed by incorporating rundown correction for the peak INa.

hNaV1.1 (SCN1A) = hNaV1.1 (SCN1A) (Homo sapiens, UniProt P35498); test: Use-dependent inhibition of the CNS NaV1.1 sodium channel; format: cell-based; conditions: % inhibition, 25 Hz; for inhibition at 1 µM: use-dependent block at 1 uM, read-out: Nav1.1 UDB 25 Hz 1 uM; for inhibition at 10 µM: use-dependent block at 10 uM, read-out: Nav1.1 UDB 25 Hz 10 uM
How it was run: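 Whole-cell automated patch clamp on HEK-293 cells stably expressing hNaV1.1, 23-25° C., CsF internal solution. Peak current at pulse 20 of a 25 Hz train (0 mV, 20 ms) from −120 mV, normalized to pulse 1; percentage inhibition versus compound-free condition.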

[2] = % inhibition, use-dependent block of peak INa at 3 uM, 3 Hz, pulse 50, read-out: Nav1.5 Peak UDB 3 Hz 3 uM
[3] = read-out: Nav1.5 Peak TB 3 uM, % inhibition, tonic block of peak INa at 3 uM, 0.1 Hz, holding -100 mV

Chain of wild-type human cardiac sodium channel, hNaV 1.5 (Peak INa) (Q14524 whole entry): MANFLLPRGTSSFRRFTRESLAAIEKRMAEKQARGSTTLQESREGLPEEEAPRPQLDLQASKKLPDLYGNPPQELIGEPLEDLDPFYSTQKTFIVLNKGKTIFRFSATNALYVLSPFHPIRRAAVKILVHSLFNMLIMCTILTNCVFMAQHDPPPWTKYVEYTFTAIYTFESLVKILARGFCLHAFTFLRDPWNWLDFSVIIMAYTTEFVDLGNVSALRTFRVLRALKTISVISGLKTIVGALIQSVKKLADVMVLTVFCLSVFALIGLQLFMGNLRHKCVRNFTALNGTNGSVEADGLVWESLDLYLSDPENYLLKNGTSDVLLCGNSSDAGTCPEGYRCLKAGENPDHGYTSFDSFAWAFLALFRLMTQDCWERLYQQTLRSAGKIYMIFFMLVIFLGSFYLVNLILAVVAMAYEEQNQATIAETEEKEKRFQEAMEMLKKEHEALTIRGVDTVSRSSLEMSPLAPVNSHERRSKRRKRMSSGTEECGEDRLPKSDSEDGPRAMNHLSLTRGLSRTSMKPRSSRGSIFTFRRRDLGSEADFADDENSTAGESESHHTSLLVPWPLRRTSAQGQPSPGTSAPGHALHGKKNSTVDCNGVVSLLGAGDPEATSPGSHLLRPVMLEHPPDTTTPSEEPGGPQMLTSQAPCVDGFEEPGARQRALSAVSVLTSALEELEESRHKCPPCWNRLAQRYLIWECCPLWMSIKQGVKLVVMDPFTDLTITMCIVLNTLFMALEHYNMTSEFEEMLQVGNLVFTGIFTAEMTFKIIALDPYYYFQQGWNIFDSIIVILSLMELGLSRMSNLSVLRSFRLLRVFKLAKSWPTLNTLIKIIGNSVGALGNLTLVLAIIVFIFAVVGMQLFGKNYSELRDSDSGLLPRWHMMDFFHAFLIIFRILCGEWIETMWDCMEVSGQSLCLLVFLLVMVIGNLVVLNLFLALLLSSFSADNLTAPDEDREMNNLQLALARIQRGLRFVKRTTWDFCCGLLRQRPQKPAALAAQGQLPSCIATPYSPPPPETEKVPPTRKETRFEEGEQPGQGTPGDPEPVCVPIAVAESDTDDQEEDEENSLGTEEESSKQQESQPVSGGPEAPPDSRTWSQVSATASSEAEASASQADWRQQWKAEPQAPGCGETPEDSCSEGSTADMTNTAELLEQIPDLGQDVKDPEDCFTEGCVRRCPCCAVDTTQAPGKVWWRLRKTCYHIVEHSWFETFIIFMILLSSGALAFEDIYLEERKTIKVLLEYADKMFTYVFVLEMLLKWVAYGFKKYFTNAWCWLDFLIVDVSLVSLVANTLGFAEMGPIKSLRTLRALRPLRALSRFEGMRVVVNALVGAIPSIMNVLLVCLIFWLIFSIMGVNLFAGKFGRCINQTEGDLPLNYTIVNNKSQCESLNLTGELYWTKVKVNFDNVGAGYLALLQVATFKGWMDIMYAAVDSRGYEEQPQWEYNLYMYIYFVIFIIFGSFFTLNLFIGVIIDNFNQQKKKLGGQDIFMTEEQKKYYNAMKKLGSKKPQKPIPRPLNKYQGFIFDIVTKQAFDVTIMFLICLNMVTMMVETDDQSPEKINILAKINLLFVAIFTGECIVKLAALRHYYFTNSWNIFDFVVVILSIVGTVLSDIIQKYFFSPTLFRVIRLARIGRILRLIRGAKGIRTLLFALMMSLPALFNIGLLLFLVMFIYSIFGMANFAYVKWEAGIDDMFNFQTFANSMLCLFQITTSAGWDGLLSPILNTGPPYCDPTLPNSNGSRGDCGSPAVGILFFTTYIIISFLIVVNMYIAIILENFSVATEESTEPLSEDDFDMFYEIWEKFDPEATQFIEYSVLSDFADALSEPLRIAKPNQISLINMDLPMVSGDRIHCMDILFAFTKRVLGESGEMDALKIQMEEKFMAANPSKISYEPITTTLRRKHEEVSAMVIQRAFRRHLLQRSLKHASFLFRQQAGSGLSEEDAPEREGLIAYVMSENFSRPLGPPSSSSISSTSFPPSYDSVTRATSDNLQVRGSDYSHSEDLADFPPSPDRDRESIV

Structure (SMILES)	inhibition at 3 µM [1, 2]	inhibition at 3 µM [1, 3]	inhibition at 1 µM (hNaV1.1 (SCN1A))	inhibition at 10 µM (hNaV1.1 (SCN1A))
Cc1cc(C(F)(F)F)ccc1-c1ccc2c(c1)CN(Cc1ncccn1)C(=O)O2 [Example 37, 6-(2-methyl-4-(trifluoromethyl)phenyl)-3-(pyrimidin-2-ylmethyl)-3,4-dihydro-2H-benzo[e][1,3]oxazin-2-one]	< 5%	14%	7.3%	67.7%
O=C1Oc2ccc(-c3ccc(C4(C(F)(F)F)CC4)cc3)cc2CN1Cc1ncccn1 [Example 38, 3-(pyrimidin-2-ylmethyl)-6-(4-(1-(trifluoromethyl)cyclopropyl)phenyl)-3,4-dihydro-2H-benzo[e][1,3]oxazin-2-one]	< 5%	55.6%	49%	78.1%
CC(C)Oc1cc(OC(F)(F)F)ccc1-c1ccc2c(c1)CN(Cc1ncccn1)C(=O)O2 [Example 39, 6-(2-isopropoxy-4-(trifluoromethoxy)phenyl)-3-(pyrimidin-2-ylmethyl)-3,4-dihydro-2H-benzo[e][1,3]oxazin-2-one]	5.9%	17.5%	39.1%	73.4%
CCOc1cc(OC(F)(F)F)ccc1-c1ccc2c(c1)CN(Cc1ncccn1)C(=O)O2 [Example 40, 6-(2-ethoxy-4-(trifluoromethoxy)phenyl)-3-(pyrimidin-2-ylmethyl)-3,4-dihydro-2H-benzo[e][1,3]oxazin-2-one]	10.2%	22.4%	22.6%	71.3%
Cc1cnc(CN2Cc3cc(-c4ccc(C(F)(F)F)cc4F)ccc3OC2=O)nc1 [Example 41, 6-(2-fluoro-4-(trifluoromethyl)phenyl)-3-((5-methylpyrimidin-2-yl)methyl)-3,4-dihydro-2H-benzo[e][1,3]oxazin-2-one]	< 5%	17.5%	< 5%	29%
COc1cc(C(F)(F)F)ccc1-c1ccc2c(c1)CN(Cc1ncc(C)cn1)C(=O)O2 [Example 42, 6-(2-methoxy-4-(trifluoromethyl)phenyl)-3-((5-methylpyrimidin-2-yl)methyl)-3,4-dihydro-2H-benzo[e][1,3]oxazin-2-one]	< 5%	12.7%	11.5%	47.9%
Cc1cnc(CN2Cc3cc(-c4ccc(C(F)(F)F)cc4C)ccc3OC2=O)nc1 [Example 43, 6-(2-methyl-4-(trifluoromethyl)phenyl)-3-((5-methylpyrimidin-2-yl)methyl)-3,4-dihydro-2H-benzo[e][1,3]oxazin-2-one]	< 5%	19.2%	< 5%	51.4%
COc1cc(C(F)(F)F)ccc1-c1ccc2c(c1)CN(Cc1cccc(C)n1)C(=O)O2 [Example 44, 6-(2-methoxy-4-(trifluoromethyl)phenyl)-3-((6-methylpyridin-2-yl)methyl)-3,4-dihydro-2H-benzo[e][1,3]oxazin-2-one]	< 5%	21.6%	25%	84.5%
Cc1cccc(CN2Cc3cc(-c4ccc(C(F)(F)F)cc4F)ccc3OC2=O)n1 [Example 45, 6-(2-fluoro-4-(trifluoromethyl)phenyl)-3-((6-methylpyridin-2-yl)methyl)-3,4-dihydro-2H-benzo[e][1,3]oxazin-2-one]	< 5%	33.5%	19.9%	72.8%
COc1cc(OC(F)(F)F)ccc1-c1ccc2c(c1)CN(Cc1cccc(C)n1)C(=O)O2 [Example 46, 6-(2-methoxy-4-(trifluoromethoxy)phenyl)-3-((6-methylpyridin-2-yl)methyl)-3,4-dihydro-2H-benzo[e][1,3]oxazin-2-one]	< 5%	34.7%	19%	78.6%
Cc1cccc(CN2Cc3cc(-c4ccc(OC(F)(F)F)cc4F)ccc3OC2=O)n1 [Example 47, 6-(2-fluoro-4-(trifluoromethoxy)phenyl)-3-((6-methylpyridin-2-yl)methyl)-3,4-dihydro-2H-benzo[e][1,3]oxazin-2-one]	< 5%	44.3%	< 5%	69.2%
CC1c2cc(-c3ccc(OC(F)(F)F)cc3)ccc2OC(=O)N1Cc1ncccn1 (stereo not drawn) [Example 48, 4-methyl-3-(pyrimidin-2-ylmethyl)-6-(4-(trifluoromethoxy)phenyl)-3,4-dihydro-2H-benzo[e][1,3]oxazin-2-one]		12.1%	32.5%	73.3%
CC1c2cc(-c3cccc(OC(F)(F)F)c3)ccc2OC(=O)N1Cc1ncccn1 (stereo not drawn) [Example 50, 4-methyl-3-(pyrimidin-2-ylmethyl)-6-(3-(trifluoromethoxy)phenyl)-3,4-dihydro-2H-benzo[e][1,3]oxazin-2-one]	12.1%	17.7%	10.1%	71.2%
Cc1csc(CN2Cc3cc(-c4ccc(OC(F)(F)F)cc4)ccc3OC2=O)n1 [Example 52, 3-((4-methylthiazol-2-yl)methyl)-6-(4-(trifluoromethoxy)phenyl)-3,4-dihydro-2H-benzo[e][1,3]oxazin-2-one]	< 5%	11.9%	32.9%	57.6%
Cc1csc(CN2Cc3cc(-c4ccc(OC(F)(F)F)c(F)c4)ccc3OC2=O)n1 [Example 53, 6-(3-fluoro-4-(trifluoromethoxy)phenyl)-3-((4-methylthiazol-2-yl)methyl)-3,4-dihydro-2H-benzo[e][1,3]oxazin-2-one]	< 5%	19.8%	52.7%	87.6%
Cc1csc(CN2Cc3cc(-c4ccc(OC(F)(F)F)c(C)c4)ccc3OC2=O)n1 [Example 54, 6-(3-methyl-4-(trifluoromethoxy)phenyl)-3-((4-methylthiazol-2-yl)methyl)-3,4-dihydro-2H-benzo[e][1,3]oxazin-2-one]	< 5%	11.2%	< 5%	36.7%
Cc1csc(CN2Cc3cc(-c4ccc(OC(F)(F)F)cc4F)ccc3OC2=O)n1 [Example 55, 6-(2-fluoro-4-(trifluoromethoxy)phenyl)-3-((4-methylthiazol-2-yl)methyl)-3,4-dihydro-2H-benzo[e][1,3]oxazin-2-one]	< 5%	16.1%	< 5%	55%
Cc1csc(CN2Cc3cc(-c4ccc(Cl)c(Cl)c4)ccc3OC2=O)n1 [Example 56, 6-(3,4-dichlorophenyl)-3-((4-methylthiazol-2-yl)methyl)-3,4-dihydro-2H-benzo[e][1,3]oxazin-2-one]	< 5%		< 5%	10.7%
Cc1csc(CN2Cc3cc(-c4ccc(OC(F)(F)F)cc4Cl)ccc3OC2=O)n1 [Example 57, 6-(2-chloro-4-(trifluoromethoxy)phenyl)-3-((4-methylthiazol-2-yl)methyl)-3,4-dihydro-2H-benzo[e][1,3]oxazin-2-one]	< 5%		< 5%	48.8%
COc1cc(OC(F)(F)F)ccc1-c1ccc2c(c1)CN(Cc1nc(C)cs1)C(=O)O2 [Example 58, 6-(2-methoxy-4-(trifluoromethoxy)phenyl)-3-((4-methylthiazol-2-yl)methyl)-3,4-dihydro-2H-benzo[e][1,3]oxazin-2-one]	< 5%	7.9%	7.8%	68.7%
Cc1csc(CN2Cc3cc(-c4ccc(Cl)c(F)c4)ccc3OC2=O)n1 [Example 59, 6-(4-chloro-3-fluorophenyl)-3-((4-methylthiazol-2-yl)methyl)-3,4-dihydro-2H-benzo[e][1,3]oxazin-2-one]	< 5%	13%	20.7%	39.9%

Reference: patent publication US9416128B2, “Fused heterocyclic compounds as ion channel modulators” (Gilead Sciences, Inc., priority 2013, dated 2016)
